Data taken from the supplement of paper PMC10307832.

How the values were obtained:
Experiment in all cases: relative viability (nuclei count vs DMSO), 5 days (fraction); higher = more cells survive
[1] = compound: CS(=O)(=O)CCNCc1ccc(-c2ccc3ncnc(Nc4ccc(OCc5cccc(F)c5)c(Cl)c4)c3c2)o1 [Lapatinib] + C[C@]1(O)C[C@@H](c2nc(-c3ccc4ccc(-c5ccccc5)nc4c3)c3c(N)nccn32)C1 [Linsitinib] (partner 1 µM)
Outline: (§1)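 Lung cancer cell lines were seeded in 1536-well plates and dosed by pin tool the next day, with either a single drug or a fixed anchor-drug dose combined with five library-drug doses (not always all listed) spaced in √10 steps. Five days later, one step fixed the cells and stained their nuclei (final 0.05% Triton X-100, 1% formaldehyde, 1 ug/ml Hoechst), and nuclei were counted on 4× images. Relative viability is the nuclei count in treated wells divided by the count in vehicle wells, and each value is the median of duplicate plates.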

[2] = compound: CS(=O)(=O)CCNCc1ccc(-c2ccc3ncnc(Nc4ccc(OCc5cccc(F)c5)c(Cl)c4)c3c2)o1 [Lapatinib] + CC(=O)Nc1cccc(-n2c(=O)n(C3CC3)c(=O)c3c(Nc4ccc(I)cc4F)n(C)c(=O)c(C)c32)c1 [Trametinib] (partner 0.02 µM)
Outline: as §1

[3] = compound: CC1=NC=CC(=C1)C2=CC=C(C=C2)CC(=O)NC3=CC=C(C=C3)C4=CN=CC=C4 [Wnt-C59] + Nc1ncn([C@H]2C[C@H](O)[C@@H](CO)O2)c(=O)n1 [Decitabine] (partner 2 µM)
Outline: as §1

[4] = compound: CS(=O)(=O)CCNCc1ccc(-c2ccc3ncnc(Nc4ccc(OCc5cccc(F)c5)c(Cl)c4)c3c2)o1 [Lapatinib] + CC1(C)CCC(c2ccc(Cl)cc2)=C(CN2CCN(c3ccc(C(=O)NS(=O)(=O)c4ccc(N[C@H](CCN5CCOCC5)CSc5ccccc5)c(S(=O)(=O)C(F)(F)F)c4)cc3)CC2)C1 [Navitoclax] (partner 0.5 µM)
Outline: as §1

Cell Line	relative viability ([1]; first compound 0.02 µM)	relative viability ([1]; first compound 0.06325 µM)	relative viability ([1]; first compound 0.2 µM)	relative viability ([1]; first compound 0.6325 µM)	relative viability ([1]; first compound 2 µM)	relative viability ([2]; first compound 0.02 µM)	relative viability ([2]; first compound 0.06325 µM)	relative viability ([2]; first compound 0.2 µM)	relative viability ([2]; first compound 0.6325 µM)	relative viability ([2]; first compound 2 µM)	relative viability ([3]; first compound 0.001 µM)	relative viability ([3]; first compound 0.01 µM)	relative viability ([3]; first compound 0.03162 µM)	relative viability ([3]; first compound 0.1 µM)	relative viability ([4]; first compound 0.02 µM)	relative viability ([4]; first compound 0.06325 µM)	relative viability ([4]; first compound 0.2 µM)	relative viability ([4]; first compound 0.6325 µM)	relative viability ([4]; first compound 2 µM)
NCI-H2087	0.97	0.887	1.01	1.06	0.818	0.208	0.186	0.182	0.217	0.191	0.245	0.28	0.281	0.336	0.932	0.96	1.06	1	0.962
NCI-H441	0.377	0.659	0.494	0.457	0.593	0.429		0.398	0.392	0.417	0.232	0.226	0.246	0.166		0.223	0.94	0.514	0.604
NCI-H1755	0.983	0.963	0.982	0.95	0.714	0.77	0.729	0.792	0.793	0.717	0.696	0.728	0.725	0.691	0.974	1.02	0.97	1.01	0.936
EKVX	0.922	0.757	0.956	0.579	0.179		0.29	0.315	0.249	0.147	0.313		0.417	0.374	0.859	0.916	0.809	0.77	0.199
IA-LM	0.655	0.605	0.583	0.541	0.792										0.769	0.794	0.817	0.728	0.713
A-427		1.05	1.11	1.17	1.14	0.724	0.631	0.716	0.788	0.691	0.623	0.564	0.615	0.588		0.977	0.885	0.933	0.957
NCI-H1299	0.973	0.923	0.98	1	1.05										1.05	1.06	1.05	1.01	1.06
NCI-H1993	0.743		0.816	0.752	0.639	0.458		0.57	0.496	0.477	0.597	0.594	0.64	0.66	0.831		0.618	0.69	0.51
NCI-H1651	0.946	0.884	0.922	0.846	0.9	0.856	0.809	0.827	0.806	0.811	0.671	0.675	0.613	0.597	1.05	0.968	0.971	0.899	0.906
LXF-289	0.983	0.913	0.982	0.902	0.816	0.713	0.689	0.68	0.652	0.631	0.396	0.369	0.446	0.386	0.901	0.928	0.957	0.94	0.85
LCLC-103H		0.978	0.998	0.955	1.08	0.659	0.641	0.664	0.668	0.631	0.729	0.758	0.785	0.698					
NCI-H2170						0.874	0.82	0.792	0.683	0.238	0.47	0.516	0.506	0.474	0.546	0.393	0.287	0.218	0.184
NCI-H1650						0.568	0.516	0.514	0.46	0.444	0.494	0.482	0.407	0.408	1.06	1.11	1.24	1.01	0.761
NCI-H358	0.548		0.512	0.329	0.277	0.135	0.108	0.122	0.123	0.121	0.223	0.207	0.295	0.213					
NCI-H2228	0.662	0.51	0.721	0.881	0.891	0.112	0.441	0.609	0.583	0.27					0.838	0.807	0.809	1.28	0.912
ABC-1		0.813	0.871	0.773	0.504						1.08	1.14	1.05	0.938					
NCI-H650		0.841	0.793	0.567	0.875		0.78	0.965	0.955	0.927	0.346	0.286	0.308	0.329					
NCI-H1703	0.695	0.642	0.888	0.512	0.662										0.908	0.943	1.03	1.33	0.996
A549		0.433	0.555	0.473	0.425						0.222	0.247	0.247	0.225	1.12	1.13	1.22	1.21	1.21
NCI-H2342						0.706	0.722	0.65	0.676	0.629	0.713	0.787	0.748	0.692					
NCI-H661	0.616	0.485	0.436	0.454	0.266	0.509	0.536	0.549	0.432	0.388	0.542	0.516	0.576	0.606					
SW 900							0.829	0.785	0.771	0.689	0.49	0.43	0.492	0.402					
NCI-H1648							0.307	0.256	0.339	0.233	0.581	0.405	0.496	0.561					
